Assay results as given in patent publication US20210094954A1, “PREPARATION METHODS AND APPLICATIONS OF 3,5-DISUBSTITUTED METHYLPYRAZOLO[1,5-A]PYRIMIDINE-7-HYDROXYLIC SALTS” (priority 2019, published 2021).
Read-outs that look alike come from different tables or passages of the source.

What was measured:
Diphtheria bacilli = experiment: organism not typed; format: cell-based; settings: 37° C., 24 hours; read-out: MIC values of in vitro antibacterial test results
Peel fungus = experiment: organism not typed; format: cell-based; settings: 37° C., 24 hours; read-out: MIC values of in vitro antibacterial test results
[1] = system: Enterococcus faecalis 29212; experiment: microbe, parasite or virus in culture; format: cell-based; settings: Enterococcus faecalis, 29212; 37° C., 24 hours; read-out: MIC values of in vitro antibacterial test results
[2] = system: Streptococcus agalactia B group; experiment: microbe, parasite or virus in culture; format: cell-based; settings: Streptococcus; 37° C., 24 hours; read-out: MIC values of in vitro antibacterial test results
[3] = system: Streptococcus pneumoniae 6303 (PRSP); experiment: microbe, parasite or virus in culture; format: cell-based; settings: Streptococcus pneumoniae, PRSP, 24 h, read-out: MIC values of in vitro antibacterial test results
[4] = system: Bacillus anthracis Bacillus 1; experiment: microbe, parasite or virus in culture; format: cell-based; settings: Bacillus anthracis, 24 h, read-out: MIC values of in vitro antibacterial test results
Bacillus cereus 2 = experiment: microbe, parasite or virus in culture; format: cell-based; settings: Bacillus cereus, 2; 37° C., 24 hours; read-out: MIC values of in vitro antibacterial test results
Bacillus subtilis 168 = experiment: microbe, parasite or virus in culture; format: cell-based; settings: Bacillus subtilis, 168; 37° C., 24 hours; read-out: MIC values of in vitro antibacterial test results
[5] = system: Staphylococcus aureus 703(MRSA); experiment: microbe, parasite or virus in culture; format: cell-based; settings: Staphylococcus aureus, MRSA, 24 h, read-out: MIC values of in vitro antibacterial test results
Clostridium perfringens = experiment: microbe, parasite or virus in culture; format: cell-based; settings: Clostridium perfringens, 24 h, read-out: MIC values of in vitro antibacterial test results
[6] = system: Streptococcus pneumoniae 10351; experiment: microbe, parasite or virus in culture; format: cell-based; settings: Streptococcus pneumoniae, 10351; 37° C., 24 hours; read-out: MIC values of in vitro antibacterial test results
[7] = system: Enterococcus faecalis F2518(VRE); experiment: microbe, parasite or virus in culture; format: cell-based; settings: Enterococcus faecalis, VRE, 24 h, read-out: MIC values of in vitro antibacterial test results
[8] = system: Staphylococcus aureus 43300 (MRSA); experiment: antibacterial study in vivo, survival of infected kunming mice; settings: 30 days of observation
[9] = system: Streptococcus pneumoniae M2; experiment: microbe, parasite or virus in culture; format: cell-based; settings: Streptococcus pneumoniae, M2; 37° C., 24 hours; read-out: MIC values of in vitro antibacterial test results
[10] = system: Staphylococcus aureus 43300(MRSA); experiment: microbe, parasite or virus in culture; format: cell-based; settings: Staphylococcus aureus, MRSA, 24 h, read-out: MIC values of in vitro antibacterial test results
[11] = system: F2518(VRE), Staphylococcus aureus resistant strain 43300(MRSA), 703 (MRSA), pneumococcal resistance bacteria 6303(PRSP); experiment: microbe, parasite or virus in culture; format: cell-based; settings: read-out: MIC values (μM)
[12] = system: Staphylococcus aureus 29231; experiment: microbe, parasite or virus in culture; format: cell-based; settings: Staphylococcus aureus, 29231; 37° C., 24 hours; read-out: MIC values of in vitro antibacterial test results
Oral Candida = experiment: microbe, parasite or virus in culture; format: cell-based; settings: Candida
[13] = 37° C., 24 hours, read-out: MIC values of in vitro antibacterial test results

With `Cc1nn2c([O-])cc(-c3ccc(S(N)(=O)=O)cc3)nc2c1-c1ccc(F)cc1F.[Na+]` [Compound 9, Sodium 3-(2,4-difluorophenyl)-2-methyl-5-(4-sulfamoylphenyl)pyrazolo[1,5-α]pyrimidin-7-olate] the MIC (Diphtheria bacilli) was > 150 mg/L, the MIC (Peel fungus) was > 150 mg/L and the MIC [1] was < 100 mg/L. For the same compound, the MIC [2] was < 150 mg/L, the MIC [3] was < 150 mg/L and the MIC [4] was > 150 mg/L. The MIC (Bacillus cereus 2) was < 150 mg/L, the MIC (Bacillus subtilis 168) was < 100 mg/L and the MIC [5] was < 100 mg/L. For the same compound, the MIC (Clostridium perfringens) was > 150 mg/L, the MIC [6] was < 100 mg/L and the MIC [7] was < 150 mg/L. The “Survival days” value ([8]; dosage 25 mg/kg) was 3.0 days, the MIC [9] was < 100 mg/L and the MIC [10] was < 100 mg/L. The MIC [11] was < 100 mg/L, the MIC [12] was < 100 mg/L and the MIC (Oral Candida; read-out: MIC values (μM)) was < 100 mg/L. The MIC (Oral Candida; [13]) was < 100 mg/L.

For `Cc1nn2c([O-])cc(-c3ccc(Oc4ccccc4)cc3)nc2c1-c1ccc(F)cc1F.[Na+]` [Compound 10, Sodium 3-(2,4-difluorophenyl)-2-methyl-5-(4-phenoxyphenyl)pyrazolo[1,5-α]pyrimidin-7-olate], the MIC (Diphtheria bacilli) was > 150 mg/L, the MIC (Peel fungus) was < 150 mg/L and the MIC [1] was < 100 mg/L. For the same compound, the MIC [2] was < 150 mg/L, the MIC [3] was < 150 mg/L and the MIC [4] was > 150 mg/L. For the same compound, the MIC (Bacillus cereus 2) was < 100 mg/L, the MIC (Bacillus subtilis 168) was < 100 mg/L and the MIC [5] was < 100 mg/L. For the same compound, the MIC (Clostridium perfringens) was > 150 mg/L, the MIC [6] was < 100 mg/L and the MIC [7] was < 150 mg/L. For the same compound, the “Survival days” value ([8]; dosage 25 mg/kg) was 3.5 days, the MIC [9] was < 150 mg/L and the MIC [10] was < 150 mg/L. The MIC [11] was < 100 mg/L, the MIC [12] was < 100 mg/L and the MIC (Oral Candida; [13]) was < 150 mg/L.

With `Cc1nn2c([O-])cc(-c3ccc(Oc4ccccc4)nc3)nc2c1-c1ccc(F)cc1F.[Na+]` [Compound 30, Sodium 3-(2,4-difluorophenyl)-2-methyl-5-(6-phenoxypyridin-3-yl)pyrazolo[1,5-α]pyrimidin-7-olate] the MIC (Diphtheria bacilli) was > 150 mg/L, the MIC (Peel fungus) was < 150 mg/L and the MIC [1] was < 150 mg/L. For the same compound, the MIC [2] was > 150 mg/L, the MIC [3] was > 150 mg/L and the MIC [4] was > 150 mg/L. The MIC (Bacillus cereus 2) was < 150 mg/L, the MIC (Bacillus subtilis 168) was > 150 mg/L and the MIC [5] was < 150 mg/L. For the same compound, the MIC (Clostridium perfringens) was > 150 mg/L, the MIC [6] was > 150 mg/L and the MIC [7] was < 150 mg/L. For the same compound, the “Survival days” value ([8]; dosage 30 mg/kg) was 2.4 days, the MIC [9] was < 100 mg/L and the MIC [10] was < 100 mg/L. The MIC [11] was < 100 mg/L, the MIC [12] was > 150 mg/L and the MIC (Oral Candida; read-out: MIC values (μM)) was < 100 mg/L. The MIC (Oral Candida; [13]) was < 100 mg/L.
